Source: patent EP4722207A1, “OXOISOINDOLINYL-SUBSTITUTED TETRAHYDROPYRIMIDINEDIONE DERIVATIVE AND USE THEREOF” (Gluetacs Therapeutics (Shanghai) Co., Ltd., priority 2023, dated 2024)

Tests used:
WEE1 = molecular target: T1, WEE1 (Homo sapiens, UniProt P30291+Q96SW2); experiment: Western-blot assay, substrate protein degradation in hPBMCs: WEE1; type: cell-based; conditions: for WEE1 substrate protein remaining %: compounds at 50 nM and 500 nM, 24 hours; for substrate protein remaining % WEE1: 24 hours of compound treatment, 50 nM and 500 nM
T1 construct: effects of the compounds of the present disclosure on the expression of target proteins in cells; endogenous in cells; host or cells: human PBMCs (hPBMCs)
T1 sequence (P30291 whole entry): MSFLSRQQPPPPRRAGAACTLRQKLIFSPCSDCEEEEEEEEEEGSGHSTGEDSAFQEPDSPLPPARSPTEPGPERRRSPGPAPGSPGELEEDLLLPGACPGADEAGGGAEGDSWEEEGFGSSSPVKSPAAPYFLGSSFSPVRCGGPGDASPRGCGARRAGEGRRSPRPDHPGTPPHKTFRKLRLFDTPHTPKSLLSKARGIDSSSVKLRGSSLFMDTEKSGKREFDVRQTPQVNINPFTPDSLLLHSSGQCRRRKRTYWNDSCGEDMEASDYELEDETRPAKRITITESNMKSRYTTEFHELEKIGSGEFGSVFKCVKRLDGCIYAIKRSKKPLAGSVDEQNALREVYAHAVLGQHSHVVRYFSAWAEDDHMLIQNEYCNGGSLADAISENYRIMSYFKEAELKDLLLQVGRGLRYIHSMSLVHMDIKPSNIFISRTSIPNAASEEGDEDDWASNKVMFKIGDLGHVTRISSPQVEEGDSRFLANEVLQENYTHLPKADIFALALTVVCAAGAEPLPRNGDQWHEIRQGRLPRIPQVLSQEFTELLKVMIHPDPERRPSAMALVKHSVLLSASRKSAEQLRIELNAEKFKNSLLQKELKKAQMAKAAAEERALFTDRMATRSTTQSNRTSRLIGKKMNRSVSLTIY
T1 sequence (Q96SW2 whole entry): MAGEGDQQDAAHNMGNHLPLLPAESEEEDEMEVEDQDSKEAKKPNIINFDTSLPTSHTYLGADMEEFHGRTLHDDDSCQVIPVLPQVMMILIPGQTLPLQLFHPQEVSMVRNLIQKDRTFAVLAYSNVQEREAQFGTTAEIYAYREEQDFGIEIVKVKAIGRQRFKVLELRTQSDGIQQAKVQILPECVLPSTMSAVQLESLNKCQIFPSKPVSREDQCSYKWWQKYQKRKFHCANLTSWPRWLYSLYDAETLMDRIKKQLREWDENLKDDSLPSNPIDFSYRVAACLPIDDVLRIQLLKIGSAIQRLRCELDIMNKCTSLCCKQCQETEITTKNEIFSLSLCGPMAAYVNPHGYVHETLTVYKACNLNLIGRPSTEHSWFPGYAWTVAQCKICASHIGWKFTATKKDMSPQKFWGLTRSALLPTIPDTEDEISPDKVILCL
T1 sequence (Q16531 whole entry partner): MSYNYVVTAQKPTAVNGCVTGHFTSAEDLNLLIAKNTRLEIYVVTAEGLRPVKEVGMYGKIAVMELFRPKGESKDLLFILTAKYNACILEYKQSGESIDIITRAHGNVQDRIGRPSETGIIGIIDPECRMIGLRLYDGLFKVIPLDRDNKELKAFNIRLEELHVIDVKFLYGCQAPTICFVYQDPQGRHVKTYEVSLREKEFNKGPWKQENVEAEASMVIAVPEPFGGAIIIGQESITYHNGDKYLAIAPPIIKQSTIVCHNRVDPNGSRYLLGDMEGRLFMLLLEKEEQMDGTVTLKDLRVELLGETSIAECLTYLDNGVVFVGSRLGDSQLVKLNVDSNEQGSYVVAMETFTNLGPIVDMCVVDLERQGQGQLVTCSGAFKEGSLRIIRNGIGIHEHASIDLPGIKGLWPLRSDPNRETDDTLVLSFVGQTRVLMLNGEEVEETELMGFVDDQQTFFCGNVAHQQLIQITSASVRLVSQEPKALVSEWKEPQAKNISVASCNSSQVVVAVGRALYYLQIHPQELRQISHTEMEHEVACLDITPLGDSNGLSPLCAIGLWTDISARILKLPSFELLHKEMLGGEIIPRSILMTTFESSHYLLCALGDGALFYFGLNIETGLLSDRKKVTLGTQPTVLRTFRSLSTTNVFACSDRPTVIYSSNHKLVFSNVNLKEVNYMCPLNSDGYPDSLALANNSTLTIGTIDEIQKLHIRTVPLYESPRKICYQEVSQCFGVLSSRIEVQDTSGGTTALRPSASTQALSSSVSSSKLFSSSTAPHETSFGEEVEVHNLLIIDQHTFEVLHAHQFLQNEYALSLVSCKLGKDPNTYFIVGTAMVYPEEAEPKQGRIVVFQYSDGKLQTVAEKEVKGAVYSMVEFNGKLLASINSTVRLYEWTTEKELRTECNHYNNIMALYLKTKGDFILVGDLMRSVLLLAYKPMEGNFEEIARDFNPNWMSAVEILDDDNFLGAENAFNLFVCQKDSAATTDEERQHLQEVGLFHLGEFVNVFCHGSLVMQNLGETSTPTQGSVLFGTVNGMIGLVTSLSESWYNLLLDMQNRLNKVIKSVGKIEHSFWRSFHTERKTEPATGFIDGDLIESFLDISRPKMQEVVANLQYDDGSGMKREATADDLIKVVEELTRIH

IKZF1 = molecular target: T2, IKZF1 (Homo sapiens, UniProt Q13422+Q96SW2); experiment: Western-blot assay, substrate protein degradation in hPBMCs: IKZF1; type: cell-based; conditions: for IKZF1 substrate protein remaining %: compounds at 50 nM and 500 nM, 24 hours; for substrate protein remaining % IKZF1: 24 hours of compound treatment, 50 nM and 500 nM
T2 construct: effects of the compounds of the present disclosure on the expression of target proteins in cells; endogenous in cells; host or cells: human PBMCs (hPBMCs)

IKZF2 = molecular target: T3, IKZF2 (Homo sapiens, UniProt Q96SW2+Q9UKS7); experiment: Western-blot assay, substrate protein degradation in hPBMCs: IKZF2; type: cell-based; conditions: for IKZF2 substrate protein remaining %: compounds at 50 nM and 500 nM, 24 hours; for substrate protein remaining % IKZF2: 24 hours of compound treatment, 50 nM and 500 nM
T3 construct: effects of the compounds of the present disclosure on the expression of target proteins in cells; endogenous in cells; host or cells: human PBMCs (hPBMCs)
T3 sequence (Q9UKS7 whole entry): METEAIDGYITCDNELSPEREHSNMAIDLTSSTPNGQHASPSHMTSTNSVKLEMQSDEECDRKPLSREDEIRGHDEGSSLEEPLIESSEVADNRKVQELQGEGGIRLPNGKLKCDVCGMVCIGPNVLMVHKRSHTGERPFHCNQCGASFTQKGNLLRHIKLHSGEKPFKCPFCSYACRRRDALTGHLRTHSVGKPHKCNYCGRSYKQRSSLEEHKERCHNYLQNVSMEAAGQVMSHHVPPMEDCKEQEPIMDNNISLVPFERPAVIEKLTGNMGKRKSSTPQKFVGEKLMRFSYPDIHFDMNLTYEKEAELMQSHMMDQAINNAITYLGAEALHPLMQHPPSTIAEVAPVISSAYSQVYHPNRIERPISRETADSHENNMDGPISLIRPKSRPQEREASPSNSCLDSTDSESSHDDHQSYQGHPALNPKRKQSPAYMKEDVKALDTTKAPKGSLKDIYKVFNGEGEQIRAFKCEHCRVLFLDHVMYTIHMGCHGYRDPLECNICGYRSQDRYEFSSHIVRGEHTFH
T3 sequence (Q96SW2 whole entry): as the sequence (Q96SW2 whole entry) above
T3 sequence (Q16531 whole entry partner): as the sequence (Q16531 whole entry partner) above

IKZF3 = molecular target: T4, IKZF3 (Homo sapiens, UniProt Q96SW2+Q9UKT9); experiment: Western-blot assay, substrate protein degradation in hPBMCs: IKZF3; type: cell-based; conditions: for IKZF3 substrate protein remaining %: compounds at 50 nM and 500 nM, 24 hours; for substrate protein remaining % IKZF3: 24 hours of compound treatment, 50 nM and 500 nM
T4 construct: effects of the compounds of the present disclosure on the expression of target proteins in cells; endogenous in cells; host or cells: human PBMCs (hPBMCs)
T4 sequence (Q9UKT9 whole entry): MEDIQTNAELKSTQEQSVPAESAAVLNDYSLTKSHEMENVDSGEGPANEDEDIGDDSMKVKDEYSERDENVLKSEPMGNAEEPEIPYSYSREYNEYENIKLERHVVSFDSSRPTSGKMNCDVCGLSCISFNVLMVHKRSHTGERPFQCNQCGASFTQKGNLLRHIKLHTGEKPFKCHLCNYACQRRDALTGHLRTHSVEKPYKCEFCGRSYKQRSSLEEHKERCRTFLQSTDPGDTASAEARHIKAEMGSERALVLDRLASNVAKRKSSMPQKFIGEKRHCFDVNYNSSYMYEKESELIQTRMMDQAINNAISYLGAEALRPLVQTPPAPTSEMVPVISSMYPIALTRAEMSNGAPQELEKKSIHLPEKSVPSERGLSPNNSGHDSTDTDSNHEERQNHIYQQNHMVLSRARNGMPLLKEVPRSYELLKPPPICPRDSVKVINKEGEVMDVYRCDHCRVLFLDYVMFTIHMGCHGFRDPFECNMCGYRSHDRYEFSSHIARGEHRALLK
T4 sequence (Q96SW2 whole entry): as the sequence (Q96SW2 whole entry) above
T4 sequence (Q16531 whole entry partner): as the sequence (Q16531 whole entry partner) above

CK1α = molecular target: T5, CK1α (Homo sapiens, UniProt P48729+Q96SW2); experiment: Western-blot assay, substrate protein degradation in hPBMCs: CK1α; type: cell-based; conditions: for CK1α substrate protein remaining %: compounds at 50 nM and 500 nM, 24 hours; for substrate protein remaining % CK1α: 24 hours of compound treatment, 50 nM and 500 nM
T5 construct: effects of the compounds of the present disclosure on the expression of target proteins in cells; endogenous in cells; host or cells: human PBMCs (hPBMCs)
T5 sequence (P48729 whole entry): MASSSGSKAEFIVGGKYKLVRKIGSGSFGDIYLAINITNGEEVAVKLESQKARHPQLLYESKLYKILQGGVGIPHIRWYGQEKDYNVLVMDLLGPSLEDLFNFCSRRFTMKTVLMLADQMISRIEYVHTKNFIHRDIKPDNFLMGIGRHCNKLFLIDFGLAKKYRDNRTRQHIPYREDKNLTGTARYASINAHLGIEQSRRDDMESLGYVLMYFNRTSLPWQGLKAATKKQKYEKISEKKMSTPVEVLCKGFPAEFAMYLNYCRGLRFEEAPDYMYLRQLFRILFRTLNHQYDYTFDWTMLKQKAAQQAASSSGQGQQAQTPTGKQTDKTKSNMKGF
T5 sequence (Q96SW2 whole entry): as the sequence (Q96SW2 whole entry) above
T5 sequence (Q16531 whole entry partner): as the sequence (Q16531 whole entry partner) above

GSPT1 = molecular target: T6, GSPT1 (Homo sapiens, UniProt P15170+Q96SW2); experiment: Western-blot assay, substrate protein degradation in hPBMCs: GSPT1; type: cell-based; conditions: for GSPT1 substrate protein remaining %: compounds at 50 nM and 500 nM, 24 hours; for substrate protein remaining % GSPT1: 24 hours of compound treatment, 50 nM and 500 nM
T6 construct: effects of the compounds of the present disclosure on the expression of target proteins in cells; endogenous in cells; host or cells: human PBMCs (hPBMCs)
T6 sequence (P15170 whole entry): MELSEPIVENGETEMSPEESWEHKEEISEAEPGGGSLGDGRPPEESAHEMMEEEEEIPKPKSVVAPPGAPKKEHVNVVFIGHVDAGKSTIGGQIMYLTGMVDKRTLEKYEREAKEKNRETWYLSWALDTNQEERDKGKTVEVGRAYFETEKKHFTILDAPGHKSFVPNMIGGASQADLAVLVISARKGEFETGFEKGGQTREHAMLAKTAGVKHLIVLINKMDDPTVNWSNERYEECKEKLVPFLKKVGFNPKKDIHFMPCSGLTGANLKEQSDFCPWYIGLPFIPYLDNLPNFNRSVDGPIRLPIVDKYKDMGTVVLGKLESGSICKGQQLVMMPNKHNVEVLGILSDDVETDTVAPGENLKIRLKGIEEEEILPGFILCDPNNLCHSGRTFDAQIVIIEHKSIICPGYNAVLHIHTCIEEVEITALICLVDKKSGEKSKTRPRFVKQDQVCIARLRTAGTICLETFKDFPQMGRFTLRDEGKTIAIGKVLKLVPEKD
T6 sequence (Q96SW2 whole entry): as the sequence (Q96SW2 whole entry) above
T6 sequence (Q16531 whole entry partner): as the sequence (Q16531 whole entry partner) above

MM.1S = experiment: Cell viability assay (CellTiter-Meiluncell Luminescent), tumor cell proliferation, MM.1S; conditions: Homo sapiens, MM1.S, 96 h, read-out: inhibitory activity (IC50, nM) against tumor cells proliferation, MM.1S
Jurkat = experiment: Cell viability assay (CellTiter-Meiluncell Luminescent), tumor cell proliferation, Jurkat; conditions: Homo sapiens, 96 h, read-out: inhibitory activity (IC50, nM) against tumor cells proliferation, Jurkat
MV-4-11 = experiment: Cell viability assay (CellTiter-Meiluncell Luminescent), tumor cell proliferation, MV-4-11; conditions: Homo sapiens, MV4-11, 96 h, read-out: inhibitory activity (IC50, nM) against tumor cells proliferation, MV-4-11
Protocol: The tumor cells used herein were cultured in a cell culture medium listed in table 2 at 37°C in an incubator with 5% CO2. Prior to experimentation, all cell lines used were correctly identified by STR profiling, and tested negative for mycoplasma contamination using a mycoplasma detection kit through routine screenings.
On the following day, the test compounds of the present disclosure were subjected to serial dilution. […] Subsequently, 0.5 µL of the test compound dilution was transferred into the 96-well plate containing the cells, with each well containing 100 µL of cell culture medium. […] Into the 96-well plate, the diluted test compounds and corresponding detection reagents were added, resulting in final test compound concentrations of 500 nM and 10 nM, respectively. The experimental procedure is described below using the diluted 2 µM test compound as an example.
After the cells were treated with the compounds of the present disclosure for a specified period, the cell viability assay reagent was added to the culture medium according to the kit's instructions to determine cell viability. […] All controls were treated using the same procedure as the compounds of the present disclosure. The growth inhibition curves for the compounds of the present disclosure were plotted using Prism GraphPad software, and the IC50 values were calculated therefrom.

Row | SMILES | IC50 (Jurkat) [nM] | IC50 (MV-4-11) [nM] | WEE1 substrate protein remaining % (WEE1) | IKZF1 substrate protein remaining % (IKZF1) | IKZF2 substrate protein remaining % (IKZF2) | IKZF3 substrate protein remaining % (IKZF3) | CK1α substrate protein remaining % (CK1α) | GSPT1 substrate protein remaining % (GSPT1) | IC50 (MM.1S) [nM] | substrate protein remaining % WEE1 (WEE1) | substrate protein remaining % IKZF1 (IKZF1) | substrate protein remaining % IKZF2 (IKZF2) | substrate protein remaining % IKZF3 (IKZF3) | substrate protein remaining % CK1α (CK1α) | substrate protein remaining % GSPT1 (GSPT1)
1 | O=C1CCN(N2Cc3cc(CN4CC=C(c5ccco5)CC4)ccc3C2=O)C(=O)N1 [GT-04874, 1-(5-((4-(furan-2-yl)-3,6-dihydropyridin-1(2H)-yl)methyl)-1-oxoisoindolin-2-yl)dihydropyrimidine-2,4(1H,3H)-dione] | 500 to 1000 | – | A ("A" is defined as 0% ≤ substrate protein remaining % ≤ 80%) | A ("A" is defined as 0% ≤ substrate protein remaining % ≤ 80%) | B ("B" is defined as 80%< substrate protein remaining %≤ 100%) | A ("A" is defined as 0% ≤ substrate protein remaining % ≤ 80%) | B ("B" is defined as 80%< substrate protein remaining %≤ 100%) | A ("A" is defined as 0% ≤ substrate protein remaining % ≤ 80%) | 100 to 300 | – | – | – | – | – | –
2 | O=C1CCN(N2Cc3cc(CN4CCC(c5cccc(Cl)c5Cl)CC4)ccc3C2=O)C(=O)N1 [GT-06893, 1-(5-((4-(2,3-dichlorophenyl)piperidin-1-yl)methyl)-1-oxoisoindolin-2-yl)dihydropyrimidine-2,4(1H,3H)-dione] | 500 to 1000 | 100 to 300 | B ("B" is defined as 80%< substrate protein remaining %≤ 100%) | A ("A" is defined as 0% ≤ substrate protein remaining % ≤ 80%) | A ("A" is defined as 0% ≤ substrate protein remaining % ≤ 80%) | B ("B" is defined as 80%< substrate protein remaining %≤ 100%) | B ("B" is defined as 80%< substrate protein remaining %≤ 100%) | A ("A" is defined as 0% ≤ substrate protein remaining % ≤ 80%) | – | – | – | – | – | – | –
3 | O=C1CCN(N2Cc3cc(CN4CCC(c5cccc(F)c5Cl)CC4)ccc3C2=O)C(=O)N1 [GT-06894, 1-(5-((4-(2-chloro-3-fluorophenyl)piperidin-1-yl)methyl)-1-oxoisoindolin-2-yl)dihydropyrimidine-2,4(1H,3H)-dione] | 500 to 1000 | 300 to 500 | B ("B" is defined as 80%< substrate protein remaining %≤ 100%) | A ("A" is defined as 0% ≤ substrate protein remaining % ≤ 80%) | B ("B" is defined as 80%< substrate protein remaining %≤ 100%) | B ("B" is defined as 80%< substrate protein remaining %≤ 100%) | B ("B" is defined as 80%< substrate protein remaining %≤ 100%) | A ("A" is defined as 0% ≤ substrate protein remaining % ≤ 80%) | – | – | – | – | – | – | –
4 | O=C1CCN(N2C(=O)c3ccc(CN4CCN(c5ncc(C(F)(F)F)cc5Cl)CC4)cc3C2=O)C(=O)N1 [GT-07026, 5-((4-(3-chloro-5-(trifluoromethyl)pyridin-2-yl)piperazin-1-yl)methyl)-2-(2,4-dioxotetrahydropyrimidin-1(2H)-yl)isoindoline-1,3-dione] | 500 to 1000 | – | A ("A" is defined as 0% ≤ substrate protein remaining % ≤ 80%) | B ("B" is defined as 80%< substrate protein remaining %≤ 100%) | B ("B" is defined as 80%< substrate protein remaining %≤ 100%) | B ("B" is defined as 80%< substrate protein remaining %≤ 100%) | B ("B" is defined as 80%< substrate protein remaining %≤ 100%) | A ("A" is defined as 0% ≤ substrate protein remaining % ≤ 80%) | – | – | – | – | – | – | –
5 | O=C1CCN(N2Cc3cc(CN4CC=C(c5ccnc(Cl)c5Cl)CC4)ccc3C2=O)C(=O)N1 [GT-07432, 1-(5-((2',3'-dichloro-3,6-dihydro-[4,4'-bipyridin]-1(2H)-yl)methyl)-1-oxoisoindolin-2-yl)dihydropyrimidine-2,4(1H,3H)-dione] | 500 to 1000 | – | – | – | – | – | – | – | 300 to 500 | A (0% ≤ substrate protein remaining % ≤ 80%) | A (0% ≤ substrate protein remaining % ≤ 80%) | A (0% ≤ substrate protein remaining % ≤ 80%) | A (0% ≤ substrate protein remaining % ≤ 80%) | A (0% ≤ substrate protein remaining % ≤ 80%) | A (0% ≤ substrate protein remaining % ≤ 80%)
6 | O=C1CCN(N2Cc3cc(CN4CCC(c5cccs5)CC4)ccc3C2=O)C(=O)N1 [GT-07511, 1-(1-oxo-5-((4-(thiophen-2-yl)piperidin-1-yl)methyl)isoindolin-2-yl)dihydropyrimidine-2,4(1H,3H)-dione] | 500 to 1000 | – | – | – | – | – | – | – | 500 to 1000 | A (0% ≤ substrate protein remaining % ≤ 80%) | A (0% ≤ substrate protein remaining % ≤ 80%) | A (0% ≤ substrate protein remaining % ≤ 80%) | B (80%< substrate protein remaining %≤ 100%) | A (0% ≤ substrate protein remaining % ≤ 80%) | A (0% ≤ substrate protein remaining % ≤ 80%)
7 | Cn1cc(C2CCN(Cc3ccc4c(c3)CN(N3CCC(=O)NC3=O)C4=O)CC2)c2ccc(F)cc21 [GT-07575, 1-(5-((4-(6-fluoro-1-methyl-1H-indol-3-yl)piperidin-1-yl)methyl)-1-oxoisoindolin-2-yl)dihydropyrimidine-2,4(1H,3H)-dione] | 100 to 300 | – | – | – | – | – | – | – | 100 to 300 | A (0% ≤ substrate protein remaining % ≤ 80%) | A (0% ≤ substrate protein remaining % ≤ 80%) | A (0% ≤ substrate protein remaining % ≤ 80%) | A (0% ≤ substrate protein remaining % ≤ 80%) | A (0% ≤ substrate protein remaining % ≤ 80%) | A (0% ≤ substrate protein remaining % ≤ 80%)
8 | O=C1CCN(N2Cc3cc(CN4CC=C(c5c[nH]c6ncccc56)CC4)ccc3C2=O)C(=O)N1 [GT-07577, 1-(5-((4-(1H-pyrrolo[2,3-b]pyridin-3-yl)-3,6-dihydropyridin-1(2H)-yl)methyl)-1-oxoisoindolin-2-yl)dihydropyrimidine-2,4(1H,3H)-dione] | 500 to 1000 | – | – | – | – | – | – | – | 300 to 500 | A (0% ≤ substrate protein remaining % ≤ 80%) | A (0% ≤ substrate protein remaining % ≤ 80%) | B (80%< substrate protein remaining %≤ 100%) | A (0% ≤ substrate protein remaining % ≤ 80%) | A (0% ≤ substrate protein remaining % ≤ 80%) | A (0% ≤ substrate protein remaining % ≤ 80%)

Second part, led by results:

Row | IC50 (Jurkat) [nM] | IC50 (MV-4-11) [nM] | SMILES | WEE1 substrate protein remaining % (WEE1) | IKZF1 substrate protein remaining % (IKZF1) | IKZF2 substrate protein remaining % (IKZF2) | IKZF3 substrate protein remaining % (IKZF3) | CK1α substrate protein remaining % (CK1α) | GSPT1 substrate protein remaining % (GSPT1) | IC50 (MM.1S) [nM] | substrate protein remaining % WEE1 (WEE1) | substrate protein remaining % IKZF1 (IKZF1) | substrate protein remaining % IKZF2 (IKZF2) | substrate protein remaining % IKZF3 (IKZF3) | substrate protein remaining % CK1α (CK1α) | substrate protein remaining % GSPT1 (GSPT1)
9 | 500 to 1000 | 500 to 1000 | Cc1cccc(N2CCN(Cc3ccc4c(c3)CN(N3CCC(=O)NC3=O)C4=O)CC2)c1 [GT-06770, 1-(1-oxo-5-((4-(m-tolyl)piperazin-1-yl)methyl)isoindolin-2-yl)dihydropyrimidine-2,4(1H,3H)-dione] | A ("A" is defined as 0% ≤ substrate protein remaining % ≤ 80%) | A ("A" is defined as 0% ≤ substrate protein remaining % ≤ 80%) | A ("A" is defined as 0% ≤ substrate protein remaining % ≤ 80%) | A ("A" is defined as 0% ≤ substrate protein remaining % ≤ 80%) | A ("A" is defined as 0% ≤ substrate protein remaining % ≤ 80%) | A ("A" is defined as 0% ≤ substrate protein remaining % ≤ 80%) | – | – | – | – | – | – | –
10 | 500 to 1000 | 100 to 300 | O=C1CCN(N2Cc3cc(CN4CCN(c5cc(Cl)cc(Cl)c5)CC4)ccc3C2=O)C(=O)N1 [GT-06776, 1-(5-((4-(3,5-dichlorophenyl)piperazin-1-yl)methyl)-1-oxoisoindolin-2-yl)dihydropyrimidine-2,4(1H,3H)-dione] | A ("A" is defined as 0% ≤ substrate protein remaining % ≤ 80%) | B ("B" is defined as 80%< substrate protein remaining %≤ 100%) | A ("A" is defined as 0% ≤ substrate protein remaining % ≤ 80%) | B ("B" is defined as 80%< substrate protein remaining %≤ 100%) | A ("A" is defined as 0% ≤ substrate protein remaining % ≤ 80%) | A ("A" is defined as 0% ≤ substrate protein remaining % ≤ 80%) | – | – | – | – | – | – | –
11 | 100 to 300 | – | O=C1CCN(N2Cc3cc(CN4CCN(C(c5cccc(F)c5)c5cccc(F)c5)CC4)ccc3C2=O)C(=O)N1 [GT-07293, 1-(5-((4-(bis(3-fluorophenyl)methyl)piperazin-1-yl)methyl)-1-oxoisoindolin-2-yl)dihydropyrimidine-2,4(1H,3H)-dione] | A ("A" is defined as 0% ≤ substrate protein remaining % ≤ 80%) | B ("B" is defined as 80%< substrate protein remaining %≤ 100%) | A ("A" is defined as 0% ≤ substrate protein remaining % ≤ 80%) | A ("A" is defined as 0% ≤ substrate protein remaining % ≤ 80%) | B ("B" is defined as 80%< substrate protein remaining %≤ 100%) | A ("A" is defined as 0% ≤ substrate protein remaining % ≤ 80%) | 100 to 300 | – | – | – | – | – | –
